According to ChEMBL document CHEMBL3232777, “QSAR models for HEPT derivates as NNRTI inhibitors based on Monte Carlo method” (Eur J Med Chem, 2014):

Tested on: Human immunodeficiency virus 1
Experiment: Antiviral activity against HIV1 3B infected in human MT4 cells assessed as protection from cytopathic effect
Type: functional, organism-based
Conditions: Human immunodeficiency virus 1, 3B

| SMILES | IC50 [µM] |
| --- | --- |
| Cc1c(Sc2ccc(Cl)cc2)n(COCCO)c(=O)[nH]c1=O | 251 |
| Cc1c(Sc2cccc(CO)c2)n(COCCO)c(=O)[nH]c1=O | 295 |
| Cc1c(Sc2cc(Cl)cc(Cl)c2)n(COCCO)c(=O)[nH]c1=O | 1.29 |
| Cc1c(Sc2ccc(C#N)cc2)n(COCCO)c(=O)[nH]c1=O | 251 |
| Cc1c(Sc2ccc([N+](=O)[O-])cc2)n(COCCO)c(=O)[nH]c1=O | 191 |
| COc1ccc(Sc2c(C)c(=O)[nH]c(=O)n2COCCO)cc1 | 251 |
| CC(=O)c1cccc(Sc2c(C)c(=O)[nH]c(=O)n2COCCO)c1 | 7.24 |
| O=C(Nc1ccccc1)c1c(Sc2ccccc2)n(COCCO)c(=O)[nH]c1=O | 18.2 |
| Cc1c(Sc2ccc(O)cc2)n(COCCO)c(=O)[nH]c1=O | 275 |
| Cc1c(Sc2ccc(F)cc2)n(COCCO)c(=O)[nH]c1=O | 251 |
| O=c1[nH]c(=O)n(COCCO)c(Sc2ccccc2)c1C#Cc1ccccc1 | 3.39 |
| Cc1c(Sc2cccc(C(=O)O)c2)n(COCCO)c(=O)[nH]c1=O | 355 |
| C#Cc1c(Sc2ccccc2)n(COCCO)c(=O)[nH]c1=O | 18.2 |
| O=c1[nH]c(=O)n(COCCO)c(Sc2ccccc2)c1/C=C/c1ccccc1 | 6.03 |
| CCc1c(Sc2ccccc2)n(COCC2CCCCC2)c(=O)[nH]c1=O | 0.447 |
| CCc1c(Sc2ccccc2)n(COCCc2ccccc2)c(=O)[nH]c1=O | 0.0955 |
| CC(C)c1c(Sc2ccccc2)n(COCc2ccccc2)c(=S)[nH]c1=O | 0.00724 |
| CCc1c(Sc2ccccc2)n(COCc2ccccc2)c(=S)[nH]c1=O | 0.00813 |
| CCc1c(Sc2ccccc2)n(COCCc2ccccc2)c(=S)[nH]c1=O | 0.0912 |
| CCc1c(Sc2ccccc2)n(COCc2ccc(C)cc2)c(=S)[nH]c1=O | 0.0776 |
| CCc1c(Sc2cc(C)cc(C)c2)n(COCc2ccccc2)c(=S)[nH]c1=O | 0.00724 |
| CCOCn1c(Sc2cc(C)cc(C)c2)c(CC)c(=O)[nH]c1=O | 0.00575 |
| CCCCOCn1c(Sc2ccccc2)c(C)c(=O)[nH]c1=O | 4.68 |
| CCCCCOCCOCn1c(Sc2ccccc2)c(C)c(=O)[nH]c1=O | 34.7 |
| Cc1c(Sc2cccc(I)c2)n(COCCO)c(=O)[nH]c1=O | 10 |

| SMILES | IC50 [µM] |
| --- | --- |
| Cc1ccc(Sc2c(C)c(=O)[nH]c(=O)n2COCCO)cc1 | 219 |
| COC(=O)c1cccc(Sc2c(C)c(=O)[nH]c(=O)n2COCCO)c1 | 7.94 |
| Cc1c(Sc2cccc([N+](=O)[O-])c2)n(COCCO)c(=O)[nH]c1=O | 33.9 |
| CCCc1c(Sc2ccccc2)n(COCCO)c(=O)[nH]c1=O | 3.39 |
| CCc1c(Sc2cc(Cl)cc(Cl)c2)n(COCCO)c(=S)[nH]c1=O | 0.0427 |
| Cc1cc(C)cc(Sc2c(C(C)C)c(=O)[nH]c(=S)n2COCCO)c1 | 0.00501 |
| Cc1c(Sc2ccccc2[N+](=O)[O-])n(COCCO)c(=O)[nH]c1=O | 141 |
| C=CCc1c(Sc2ccccc2)n(COCCO)c(=O)[nH]c1=O | 2.51 |
| CC(C)c1c(Sc2ccccc2)n(COCCO)c(=S)[nH]c1=O | 0.0589 |
| Cc1c(Sc2cccc(F)c2)n(COCCO)c(=O)[nH]c1=O | 3.31 |
| COc1ccccc1Sc1c(C)c(=O)[nH]c(=O)n1COCCO | 19.1 |
| CCc1c(Sc2ccccc2)n(COCCO)c(=O)[nH]c1=O | 0.12 |
| Cc1c(Sc2cccc(C#N)c2)n(COCCO)c(=O)[nH]c1=O | 10 |
| Cc1c(Sc2cccc(O)c2)n(COCCO)c(=O)[nH]c1=O | 81.3 |
| Cc1ccccc1Sc1c(C)c(=O)[nH]c(=O)n1COCCO | 70.8 |
| CCCCn1c(Sc2ccccc2)c(C)c(=O)[nH]c1=O | 1.2 |
| Cc1c(O)nc(O)nc1Sc1ccccc1 | 251 |
| Cc1c(Sc2ccccc2)n(C)c(=O)[nH]c1=O | 151 |
| O=c1[nH]c(=O)n(COCCO)c(Sc2ccccc2)c1Cl | 30.2 |
| CCc1c(Sc2ccccc2)n(COC(C)C)c(=S)[nH]c1=O | 0.219 |
| CCc1c(Sc2ccccc2)n(COCCO)c(=S)[nH]c1=O | 0.11 |
| Cc1c(Sc2ccccc2)n(COCCOC(=O)c2ccccc2)c(=O)[nH]c1=O | 7.59 |
| Cc1c(Sc2cccc(N)c2)n(COCCO)c(=O)[nH]c1=O | 251 |
| Cc1c(Sc2ccccc2)n(COCCO)c(=S)[nH]c1=O | 0.977 |
| Cc1c(Sc2cccc(C(N)=O)c2)n(COCCO)c(=O)[nH]c1=O | 309 |

| SMILES | IC50 [µM] |
| --- | --- |
| CC(C)C(=O)c1c(Sc2ccccc2)n(COCCO)c(=O)[nH]c1=O | 12 |
| CCOCn1c(Sc2ccccc2)c(C2CC2)c(=O)[nH]c1=S | 0.0955 |
| CCc1c(Sc2ccccc2)n(COCc2ccc(Cl)cc2)c(=S)[nH]c1=O | 0.012 |
| CCc1c(Sc2ccccc2)n(COC2CCCCC2)c(=S)[nH]c1=O | 1.62 |
| CCOCn1c(Sc2cc(Cl)cc(Cl)c2)c(CC)c(=O)[nH]c1=O | 0.00741 |
| CCOCn1c(Sc2cc(Cl)cc(Cl)c2)c(CC)c(=O)[nH]c1=S | 0.0129 |
| Cc1c(Sc2ccccc2)n(COCCOCc2ccccc2)c(=O)[nH]c1=O | 20 |
| Cc1c(Sc2ccccc2)n(COCCCl)c(=O)[nH]c1=O | 1.51 |
| CCOCn1c(Sc2ccccc2)c(CC)c(=O)[nH]c1=O | 0.0191 |
| COCCOCn1c(Sc2ccccc2)c(C)c(=O)[nH]c1=O | 8.71 |
| Cc1c(Sc2ccccc2)n(COCCN=[N+]=[N-])c(=O)[nH]c1=O | 5.75 |
| CCOCn1c(Sc2ccccc2)c(C(C)C)c(=O)[nH]c1=O | 0.0102 |
| CCn1c(Sc2ccccc2)c(C)c(=O)[nH]c1=O | 2.19 |
| CC(C)c1c(Sc2ccccc2)n(COCc2ccccc2)c(=O)[nH]c1=O | 0.00309 |
| COCn1c(Sc2ccccc2)c(C)c(=O)[nH]c1=O | 2.09 |
| CCOCn1c(Sc2ccccc2)c(C2CC2)c(=O)[nH]c1=O | 0.1 |
| CCCOCn1c(Sc2ccccc2)c(C)c(=O)[nH]c1=O | 3.31 |
| CCc1cccc(Sc2c(C)c(=O)[nH]c(=O)n2COCCO)c1 | 2.69 |
| Cc1c(Sc2cccc(Cl)c2)n(COCCO)c(=O)[nH]c1=O | 12.9 |
| CCOCn1c(Sc2ccccc2)c(CC)c(=O)[nH]c1=S | 0.0263 |
| CCc1c(Sc2cc(Cl)cc(Cl)c2)n(COCCO)c(=O)[nH]c1=O | 0.0141 |
| CC#Cc1c(Sc2ccccc2)n(COCCO)c(=O)[nH]c1=O | 19.1 |
| Cc1c(Sc2ccccc2)n(COCCO)c(=O)[nH]c1=O [HEPT] | 7.08 |

Results, then the compound that gave them:

| IC50 [µM] | SMILES |
| --- | --- |
| 129 | Cc1c(Sc2ccccc2Cl)n(COCCO)c(=O)[nH]c1=O |
| 110 | CC(=O)c1ccc(Sc2c(C)c(=O)[nH]c(=O)n2COCCO)cc1 |
| 20.9 | O=c1[nH]c(=O)n(COCCO)c(Sc2ccccc2)c1Sc1ccccc1 |
| 2.04 | C=Cc1c(Sc2ccccc2)n(COCCO)c(=O)[nH]c1=O |
| 0.851 | O=c1[nH]c(=O)n(COCCO)c(Sc2ccccc2)c1C=C(c1ccccc1)c1ccccc1 |
| 3.63 | O=c1[nH]c(=O)n(COCCO)c(Sc2ccccc2)c1I |
| 0.0129 | CCOCn1c(Sc2ccccc2)c(C(C)C)c(=O)[nH]c1=S |
| 0.355 | CCc1c(Sc2ccccc2)n(COCC2CCCCC2)c(=S)[nH]c1=O |
| 0.339 | CCc1c(Sc2ccccc2)n(COC(C)C)c(=O)[nH]c1=O |
| 2.57 | Cc1cccc(Sc2c(C)c(=O)[nH]c(=O)n2COCCO)c1 |
| 0.00776 | CCc1c(Sc2cc(C)cc(C)c2)n(COCCO)c(=S)[nH]c1=O |
| 21.9 | COc1cccc(Sc2c(C)c(=O)[nH]c(=O)n2COCCO)c1 |
| 0.0631 | CC(C)c1c(Sc2ccccc2)n(COCCO)c(=O)[nH]c1=O |
| 12 | Cc1c(Sc2cccc(C(C)(C)C)c2)n(COCCO)c(=O)[nH]c1=O |
| 0.219 | Cc1cc(C)cc(Sc2c(C)c(=O)[nH]c(=S)n2COCCO)c1 |
| 5.75 | Cc1c(Sc2cccc(Br)c2)n(COCCO)c(=O)[nH]c1=O |

| IC50 [µM] | SMILES |
| --- | --- |
| 1.1 | Cc1c(Sc2ccccc2)n(COCCF)c(=O)[nH]c1=O |
| 0.00589 | CCc1c(Sc2ccccc2)n(COCc2ccccc2)c(=O)[nH]c1=O |
| 0.00282 | CCc1c(Sc2cc(C)cc(C)c2)n(COCc2ccccc2)c(=O)[nH]c1=O |
| 20 | O=c1[nH]c(=O)n(COCCO)c(Sc2ccccc2)c1Br |
| 6.76 | CC(=O)OCCOCn1c(Sc2ccccc2)c(C)c(=O)[nH]c1=O |
| 6.61 | COC(=O)c1c(Sc2ccccc2)n(COCCO)c(=O)[nH]c1=O |
| 0.00501 | CCOCn1c(Sc2cc(C)cc(C)c2)c(CC)c(=O)[nH]c1=S |
| 3.98 | CCc1c(Sc2ccccc2)n(COC2CCCCC2)c(=O)[nH]c1=O |
| 0.0871 | Cc1c(Sc2ccccc2)n(COCc2ccccc2)c(=O)[nH]c1=O |
| 0.331 | CCOCn1c(Sc2ccccc2)c(C)c(=O)[nH]c1=O |
| 10 | CCCc1c(Sc2ccccc2)n(COCCO)c(=S)[nH]c1=O |
| 12.9 | O=C(c1ccccc1)c1c(Sc2ccccc2)n(COCCO)c(=O)[nH]c1=O |
| 100 | O=c1[nH]c(=O)n(COCCO)c(Sc2ccccc2)c1F |
| 44.7 | Cc1c(Sc2cccc(C(F)(F)F)c2)n(COCCO)c(=O)[nH]c1=O |
| 42.7 | O=c1[nH]c(=O)n(COCCO)c(Sc2ccccc2)c1Cc1ccccc1 |
